# From patent US20220296535A1, “Antibacterial Dosage Regime Using Cannabinoids” (Botanix Pharmaceuticals Limited, priority 2019, published 2022)
# “And” between values parts separate entries of the source, which are not always exact repeats. Equal entries are not always repeated. Structures can show the parent of a compound that is named as a salt. Where two headings read alike, the source gives them in different places.
# Legend:
# [1] = system: A. acidipropionici ATCC 25562; assay: Anaerobic MIC micro-broth dilution; type: cell-based, Acidipropionibacterium acidipropionici
# [2] = system: S. aureus ATCC 43300; assay: Anaerobic MIC micro-broth dilution; type: cell-based, Staphylococcus aureus
# [3] = system: Staphylococcus aureus MRSA ATCC 43300 biofilm; assay: Biofilm minimum inhibitory concentration (Biofilm MIC), crystal violet OD590; type: cell-based; settings: two technical replicates, ≥70% inhibition OD590; for Biofilm MIC (TSB + 5% Gluc) 07/112/18: first biological replicate; for Biofilm MIC (TSB + 5% Gluc) 14/112/18: second biological replicate
# Experimental: (§1) The collaborator supplied sample as dry material. A stock solution at 10 mg/mL in neat DMSO (11.2 mg in 1.12 mL of DMSO) was prepared. The highest concentration tested in the assay was 128 μg/mL and 2% DMSO as a final concentration using 1/20 dilution to achieve these concentrations.
# Bacteria (Staphylococcus aureus, ATCC 43300; MRSA) was cultured on Tryptic Soy Broth (TSB, BD, Cat. No. 211825) at 37° C. overnight, then it was diluted 1:100 in fresh TSB supplemented with 5% glucose. 100 μL were added across the 96-well of polystyrene (PS) (Corning; Cat. No. 3370) plate, leaving row H as media Control. Plates were incubated at 37° C. for 48 h to generate the biofilm. The plates were prepared in duplicate.
# The antibiotic controls and CBD were serially diluted in TSB with 5% glucose two-fold across the wells of polystyrene (PS) 96-well plates (Corning; Cat. No. 3370), plated in duplicate. All plates had flat bottom wells and were covered with low-evaporation lids.
# 48 h after incubation, bacteria plates were carefully washed three times with 200 μL/well of saline solution (0.9% NaCl, Baxter Healthcare; Cat. No. AHF7124) using manual pipette to remove the planktonic cells but leave the biofilm adhered to the plate wells. Then, 100 μL of diluted controls and CBD were transferred into the washed plates containing the biofilm. Then, these plates were incubated at 37° C. for 24 h.
# Next day, plates were washed three times with saline solution, then fixed with 100 μL/well of 99% methanol for 15 minutes. Once the biofilm was fixed, 100 μL/well 0.1% Crystal Violet Stain (Sigma; Cat No. C0775-25G) was added for 20 minutes and used as indicator of biofilm formation, followed by three times washing and dry well. To dissolve the crystal violet, 150 μL/well of methanol was added to allow for biofilm MIC analysis.
# The biofilm formation was determined by optical density read at 590 nm (OD590). The percentage of biofilm formation was evaluated comparing the average, standard deviation and percentage of confidence of the media control (Row H) against the rest of the plate.
# Analysis was performed using Microsoft Excel.
# [4] = system: S. aureus MRSA (106 strains); assay: MIC50/MIC90 micro-broth dilution, MRSA strains; type: cell-based, Staphylococcus aureus
# [5] = system: Staphylococcus aureus ATCC 43300; assay: Broth MIC (Example 1); type: cell-based; settings: for MIC: Staphylococcus aureus
# Experimental: as §1
# [6] = system: 132 strains of Staphylococcus aureus (106 MRSA and 26 MSSA strains); assay: MIC50/MIC90 micro-broth dilution, all strains
# [7] = system: S. aureus MSSA (26 strains); assay: MIC50/MIC90 micro-broth dilution, MSSA strains
# [8] = system: C. granulosum ATCC 25564; assay: Anaerobic MIC micro-broth dilution; type: cell-based, Cutibacterium granulosum; settings: Cutibacterium granulosum, ATCC25564, 48 h
# [9] = system: P. acnes ATCC 6919; assay: Anaerobic MIC micro-broth dilution; type: cell-based, Cutibacterium acnes (formerly Propionibacterium acnes)
# [10] = system: high-level mupirocin-resistant isolate 329; assay: MIC microtiter broth dilution (Example 9); type: cell-based; settings: Staphylococcus aureus; MRSA strain 329
# Experimental: (§2) Strains used: ATCC 29213 (standard control), ATCC 43300, low-level mupirocin-resistant isolate 815, high-level mupirocin-resistant isolage 329, high-level mupirocin-resistant isolate 993.
# (§3) All strains prepared as described in “Bacterial Preparation” section above with the following differences: inocula were prepared in Müller-Hinton broth (MHB) rather than RPMI, and were diluted 1:10,000 following wash for an inoculum concentration of ˜5×10^4 CFU/mL.
# (§4) Using a multichannel pipet, 100 μL of MHB was added to each of the wells of the 96-well plates (round bottom/U-bottom). Stock solutions of antibiotic were prepared at 2× the highest assay concentration (mupirocin at 4096 μg/mL and CBD at 100 μg/mL). 100 μL of this broth was added to each of the broth-containing wells in column 1 of the plate, and mixed by pipetting the full volume 6-7 times, for a final concentration of 2048 μg/mL mupirocin or 50 μg/mL CBD. […]
# (§5) 5 μL of each inoculum was added to the appropriate wells (various wells were left without inoculation and used to correct the absorbance of the CBD-containing wells and as negative controls). […] Plate was read by a plate reader at 600 nm.
# (§6) Inhibition was determined to have occurred in the first well with a difference in OD600 of <0.05 from the uninfected wells with the same concentration of antimicrobial, provided inhibition growth continued through all higher concentrations. […]
# [11] = system: high-level mupirocin-resistant isolate 993; assay: MIC microtiter broth dilution (Example 9); type: cell-based; settings: Staphylococcus aureus; MRSA strain 993
# Experimental: as §2, §3, §4, §5, §6
# [12] = Acidipropionibacterium acidipropionici, ATCC25562, 48 h
# [13] = S. aureus ATCC 43300, anaerobic chamber, BHI, 48 h
# [14] = ATCC43300, read-out: Broth MIC, TSB + 5% Glucose
# [15] = Cutibacterium acnes, ATCC6919, 48 h
# [16] = ATCC43300, read-out: Broth MIC, CAMHB
# [17] = A. acidipropionici ATCC 25562, anaerobic chamber, BHI, 48 h
Compound,Biofilm MIC (TSB + 5% Gluc) 07/112/18 [3],Biofilm MIC (TSB + 5% Gluc) 14/112/18 [3],"MIC50 ([4]; Staphylococcus aureus, MRSA) [µg/mL]","MIC90 ([4]; Staphylococcus aureus, MRSA) [µg/mL]","MIC [5, 14] [µg/mL]",MIC range ([6]; S. aureus spp. ALL) [µg/mL],MIC50 ([6]; Staphylococcus aureus) [µg/mL],MIC90 ([6]; Staphylococcus aureus) [µg/mL],"MIC50 ([7]; Staphylococcus aureus, MSSA) [µg/mL]","MIC90 ([7]; Staphylococcus aureus, MSSA) [µg/mL]",MIC [8] [µg/mL],"MIC [5, 16] [µg/mL]",also measured
Cc1onc(-c2ccccc2)c1C(=O)N[C@@H]1C(=O)N2[C@@H]1SC(C)(C)[C@@H]2C(=O)O [Oxacillin sodium salt hydrate],,,,,,,,,,,,,"MIC [1, 12]: 2 µg/mL; MIC [2, 13]: 64/16/8"
"CCCCCCCCCC(=O)N[C@@H](Cc1c[nH]c2ccccc12)C(=O)N[C@H](CC(N)=O)C(=O)N[C@@H](CC(=O)O)C(=O)N[C@@H]1C(=O)NCC(=O)N[C@@H](CCCN)C(=O)N[C@@H](CC(=O)O)C(=O)N[C@H](C)C(=O)N[C@@H](CC(=O)O)C(=O)NCC(=O)N[C@H](CO)C(=O)N[C@@H]([C@H](C)CC(=O)O)C(=O)N[C@@H](CC(=O)c2ccccc2N)C(=O)O[C@@H]1C [Daptomycin, reference compound]",32 µg/mL and 16 µg/mL,16 µg/mL,2,4,32,0.5 to 16,2,4,2,2,,,
CN[C@H](CC(C)C)C(=O)N[C@H]1C(=O)N[C@@H](CC(N)=O)C(=O)N[C@H]2C(=O)N[C@H]3C(=O)N[C@H](C(=O)N[C@H](C(=O)O)c4cc(O)cc(O)c4-c4cc3ccc4O)[C@H](O)c3ccc(c(Cl)c3)Oc3cc2cc(c3O[C@@H]2O[C@H](CO)[C@@H](O)[C@H](O)[C@H]2O[C@H]2C[C@](C)(N)[C@H](O)[C@H](C)O2)Oc2ccc(cc2Cl)[C@H]1O [Vancomycin],4 µg/mL,4 µg/mL,1,2,1,0.5 to 64,1,2,1,1,0.25,0.5,"MIC [9, 15]: 0.25 µg/mL"
C/C(=C\C(=O)OCCCCCCCCC(=O)O)C[C@@H]1OC[C@H](C[C@@H]2O[C@H]2[C@@H](C)[C@H](C)O)[C@@H](O)[C@H]1O [Mupirocin],0.25 µg/mL and 0.125 µg/mL,0.25 µg/mL,0.5,0.5,0.25,0.125 to 64,0.5,0.5,0.5,0.5,> 32,0.25,"MIC [9, 15]: > 32 µg/mL; MIC [1, 12]: > 32 µg/mL; MIC [10]: 256 to 2050 µg/mL; MIC [11]: 256 to 2050 µg/mL"
"CCC[C@@H]1C[C@@H](C(=O)N[C@@H]([C@H]2O[C@H](SC)[C@H](O)[C@@H](O)[C@H]2O)[C@H](C)Cl)N(C)C1.Cl.O [Clindamycin, Clindamycin hydrochloride monohydrate]",>64 µg/mL,>64 µg/mL,,,,0.03 to 64,,,,,,,"MIC50 ([4]; S. aureus MRSA): 0.125 µg/mL; MIC90 ([4]; S. aureus MRSA): 64 µg/mL; MIC ([9]; P. acnes ATCC 6919, anaerobic chamber, BHI, 48 h): 0.125 µg/mL; Broth MIC ([5]; CAMHB): >64 µg/mL; Broth MIC ([5]; TSB + 5% Glucose): >64 µg/mL; MIC [1, 17]: 0.125 µg/mL; MIC50 ([6]; S. aureus spp. ALL): 0.125 µg/mL; MIC90 ([6]; S. aureus spp. ALL): 64 µg/mL; MIC50 ([7]; S. aureus MSSA): 0.125 µg/mL; MIC90 ([7]; S. aureus MSSA): 0.1875 µg/mL; MIC [2, 13]: >32 µg/mL"
COc1cc(Cc2cnc(N)nc2N)cc(OC)c1OC [Trimethoprim],8 µg/mL,16 µg/mL and >64 µg/mL,,,4,,,,,,,1,
CC[C@H]1OC(=O)[C@H](C)[C@@H](O[C@H]2C[C@@](C)(OC)[C@@H](O)[C@H](C)O2)[C@H](C)[C@@H](O[C@@H]2O[C@H](C)C[C@H](N(C)C)[C@H]2O)[C@](C)(O)C[C@@H](C)C(=O)[C@H](C)[C@@H](O)[C@]1(C)O [Erythromycin],,,,,,,,,,,0.125,,"MIC [1, 17]: 4/2; MIC ([2]; Staphylococcus aureus, ATCC43300, 48 h): > 32 µg/mL"
